Experimental data published in patent US5153352A, “Process for preparation of intermediates of carbocyclic nucleoside analogs” (priority 1990, dated 1992).
≈ marks a conversion by molar mass, not a printed value. Where “and” joins values, the source holds several entries; their conditions need not be identical. Equal entries are not always repeated. Structures can show the parent of a compound that is named as a salt.

Key:
[1] = system: Herpes simplex type 1 (HSV-1) strain E-377; experiment: CPE-inhibition assay, HSV-1 strain E-377 in Vero cells; conditions: for TI (Therapeutic Index, MTC/ID50) / VR (Virus Rating): HSV-1 (E-377), Vero; for VR (Virus Rating): >1.0 definite, 0.5-0.9 marginal to moderate, <0.5 no significant activity; for EC50: Human alphaherpesvirus 1, Vero, read-out: ID50 (minimum drug concentration that inhibited the CPE by 50%), HSV-1 (E-377), Vero
[2] = drug cytotoxicity in Vero cells (CPE-inhibition assay); conditions: monkey, vero cells, MTC (minimum drug concentration causing any cytotoxicity), Vero
A549: Lung carcinoma = experiment: cytotoxic activity against cultured tumor cells, A549; format: cell-based; conditions: Homo sapiens, 72 h; A549, 3 days, MTT
[3] = system: Herpes simplex type 2 (HSV-2) strain MS; experiment: CPE-inhibition assay, HSV-2 strain MS in Vero cells; conditions: for TI (Therapeutic Index, MTC/ID50) / VR (Virus Rating): HSV-2 (MS), Vero; for VR (Virus Rating): >1.0 definite, 0.5-0.9 marginal to moderate, <0.5 no significant activity; for EC50: Human alphaherpesvirus 2, Vero, read-out: ID50 (minimum drug concentration that inhibited the CPE by 50%), HSV-2 (MS), Vero
[4] = system: P388D1: Lymphocytic Leukemia; experiment: cytotoxic activity against cultured tumor cells, P388-D1; format: cell-based; conditions: Mus musculus, P388D1, 72 h; P388-D1, 3 days, MTT
[5] = system: HCT8: Adenocarcinoma, ileocecal; experiment: cytotoxic activity against cultured tumor cells, HCT-8; format: cell-based; conditions: Homo sapiens, 72 h; HCT-8, 3 days, MTT
[6] = system: Human Immunodeficiency Virus (HIV-1); experiment: anti-HIV-1 protection of ATH8 cells (method of Mitsuya and Broder); format: cell-based; conditions: Human immunodeficiency virus 1, ATH-8, HIV-1, ATH8 cells, read-out: Protective Effect
From the text: The method of Mitsuya and Broder (AIDS: Modern Concepts and Therapeutic Challenges; Broder, S. ED.; Marcel Dekker, Inc.; New York, 1987; Chapter 18) was used to determine the in vitro anti-HIV-1 and anti-HIV-2 activity in ATH8 cells of some compounds of the invention. The results of the test are expressed as the percentage of ATH8 cells that were protected from the cytopathogenic effects of HIV at various concentrations of the compound of the invention.

[7] = cytotoxicity in ATH8 cells (method of Mitsuya and Broder); format: cell-based; conditions: human, HIV-1 experiment
From the text: The method of Mitsuya and Broder (AIDS: Modern Concepts and Therapeutic Challenges; Broder, S. ED.; Marcel Dekker, Inc.; New York, 1987; Chapter 18) was used to determine the in vitro anti-HIV-1 and anti-HIV-2 activity in ATH8 cells of some compounds of the invention. […]

HSV-1(E-377) = experiment: plaque reduction, HSV-1(E-377) in Vero cells; format: cell-based, Herpes simplex virus type 1; conditions: Human alphaherpesvirus 1, plaque reduction 50%, read-out: MIC50
Procedure: (§1) After the adsorption period, the infected cell monolayers were treated in duplicate with serial dilutions of the test compound. Duplicate cell controls containing medium alone and virus controls containing medium and virus were run simultaneously with the test compound. […] Plaques visible to the unaided eye were counted and the mean number of plaques in the duplicate wells for each compound concentration tested and for the untreated, virus infected controls were determined.

HSV-2 = experiment: plaque reduction, HSV-2 in Vero cells; format: cell-based, Herpes simplex virus type 2; conditions: Human alphaherpesvirus 2; HSV-2, Vero, plaque reduction 50%; read-out: MIC50
Procedure: as §1

HSV-1(123) = experiment: plaque reduction, HSV-1(123) in Vero cells; format: cell-based, Herpes simplex virus type 1; conditions: Human alphaherpesvirus 1, plaque reduction 50%, read-out: MIC50
Procedure: as §1

Vero cells = experiment: drug cytotoxicity in Vero cells (CPE-inhibition assay); conditions: Vero
[8] = MTT cytotoxicity assay in MRC5 cells; format: cell-based; conditions: human
Procedure: (§2) Human diploid embryonic lung (MRC5) cells were grown in 35 mm wells of 6-well tissue culture plates. Subconfluent cell monolayers were rinsed with phosphate buffered saline (PBS) and were exposed to 0.5 ml/well of HCMV (strain AD169) suspension for 1.5 hours at 37° C. The virus suspension was diluted in MEM+2% fetal bovine serum (FBS) to yield a multiplicity of infection (MOI) of approximately 0.1 plaque forming units (PFU)/cell. Following the virus adsorption period, the inocula were removed and infected cell layers were rinsed with PBS. Aliquots (2.0 ml) of each test drug concentration (dissolved in MEM supplemented with 2% FBS) were dispensed into triplicate cell cultures: two virus infected cultures and one uninfected cytotoxicity control culture (exposed to medium without virus for 1.5 hours). Untreated virus infected control cultures and untreated, uninfected cell control cultures were fed with medium alone.
(§3) All cell culture fluids were replaced with fresh drug and medium 48 hours postinfection (p.i.).
Drug cytotoxicity was determined quantitatively by a method based on the reduction of the tetrazolium salt, 3-(4,5-dimethyl-thiazol-2-yl)-2,5-diphenyl tetrazolium bromide (MTT) by mitochondrial enzymes of viable host cells to MTT formazan (T. Mosmann, 1983). Drug cytotoxicity controls and cell controls were treated with MTT (dissolved in culture medium) followed by 20% SDS (in 0.02 N HCl) to dissolve the crystals of MTT formazan. The blue color of the MTT formazan was measured spectrophotometrically at 570 nm. Drug cytotoxicity was determined by comparing the absorbance (O.D.) of each drug cytotoxicity control with the mean O.D. of the cell control cultures and expressed as percent of control.

[9] = system: Human Cytomegalovirus (HCMV); experiment: HCMV virus yield reduction assay in MRC5 cells; format: cell-based, Human cytomegalovirus (strain AD169)
Procedure: as §2, §3
On Day 6 p.i., the cell layers were examined microscopically for cytopathogenic effect (CPE) and drug cytotoxicity. The test and virus control cultures were then harvested by subjecting the cell layers to one cycle of freeze-thawing.
The harvested test and virus control samples were thawed and the infectious virus yield was determined by plaque assay in MRC5 cells grown in 12-well cluster plates. Inhibition of HCMV replication by each test compound was determined by comparing the progeny virus yields in the drug-treated cultures with the progeny virus yield in the untreated, virus infected control cultures.

Structure (SMILES) | TI (Therapeutic Index, MTC/ID50) [1] | VR (Virus Rating) [1] | EC50 [1] [µg/mL] | MCC ([2]; HSV-1 (E-377) experiment) [µg/mL] | TI (Therapeutic Index, MTC/ID50) [3] | VR (Virus Rating) [3] | EC50 [3] [µg/mL] | MCC ([2]; HSV-2 (MS) experiment) [µg/mL] | also measured
Nc1ncc2ncn(C3CC(CO)C3CO)c2n1 (centres unmarked) [Example 7, 3-(2'-Amino-9'H-purin-9'-yl)-1,2-bis(hydroxymethyl)cyclobutane] | 1.2 | 0.55 | 271 (≈ 1090 µM) | 320 |  |  |  |  | 
OCC1CC(n2cc(Br)c3c(Cl)ncnc32)C1CO (centres unmarked) [Example 67C] | 2.9 | 1.2 | 11.1 (≈ 32 µM) | 32 | 2.1 | 0.9 | 14.9 (≈ 43 µM) | 32 | IC50 (A549: Lung carcinoma): 18.4 µg/mL (≈ 53.1 µM); IC50 [4]: 16.4 µg/mL (≈ 47.3 µM); IC50 [5]: 4.3 µg/mL (≈ 12.4 µM)
Nc1ccn(C2CC(CO)C2CO)c(=O)n1 (centres unmarked) [Example 3, 1-(2',3'-Bis(hydroxymethyl)cyclobutyl)cytosine] | 31.8 | 3.6 | 10.1 (≈ 44.7 µM) | 320 | 6.34 | 2.0 | 50.5 (≈ 224 µM) | 320 | 
OCC1CC(n2cnc3c(Cl)ncnc32)C1 (centres unmarked) [Example 8E, 3-(6'-chloro-9'H-purin-9'-yl)cyclobutanemethanol] |  | 0.9 |  | 320 | 1.8 | 1.35 | 54.7 (≈ 229 µM) | 100 | 
Nc1nc(N)c2ncn(C3CC(CO)C3CO)c2n1 (centres unmarked) [Example 6, 3-(2',6'-Diamino 9'H-purin-9'-yl)-1,2-bis(hydroxymethyl)cyclobutane] | 10.1 | 2.4 | 31.7 (≈ 120 µM) | 320 | 4.5 | 1.6 | 71.8 (≈ 272 µM) | 320 | inhibition at 1 µM ([6]; 1 uM): 21%; inhibition at 10 µM ([6]; 10 uM): 48%; inhibition at 100 µM ([6]; 100 uM): 46%; inhibition at 500 µM ([6]; 500 uM): 57%; cytotoxicity at 1 µM ([7]; 1 uM): 0%; cytotoxicity at 10 µM ([7]; 10 uM): 4%; cytotoxicity at 100 µM ([7]; 100 uM): 32%; cytotoxicity at 500 µM ([7]; 500 uM): 38%
Nc1nc2c(ncn2C2CC(CO)C2O)c(=O)[nH]1 (centres unmarked) [Example 42P, 9-(2'-hydroxy-3'-hydroxymethyl-1'-cyclobutyl)guanine] |  |  |  |  |  |  |  |  | EC50 (HSV-1(E-377)): 1 µg/mL (≈ 3.98 µM); EC50 (HSV-2): 1 µg/mL (≈ 3.98 µM); EC50 (HSV-1(123)): 3 µg/mL (≈ 11.9 µM)
CC(=O)OCC1CC(n2cnc3c(=O)[nH]c(N)nc32)C1COC(C)=O (centres unmarked) [Example 20, 9-(2,'3,'-Bis(acetoxymethyl)cyclobutyl)guanine] | 8.2 | 2.2 | 12.1 (≈ 34.6 µM) | 100 | 6.4 | 1.9 | 15.7 (≈ 44.9 µM) | 100 | 
Nc1nc2c(nc(Br)n2C2CC(CO)C2CO)c(=O)[nH]1 (centres unmarked) [Example 23] | 3.2 | 1.7 | 100 (≈ 291 µM) | > 320 |  | 0.7 |  | > 320 | 
Nc1nc(Cl)c2ncn(C3CC(CO)C3CO)c2n1 (centres unmarked) [Example 1H, 3-(2'-Amino-6'-chloro-9'H-purin-9'-yl)-1,2-bis(hydroxymethyl)cyclobutane] |  |  | 83 (≈ 293 µM) | 320 |  |  | 179 (≈ 631 µM) | 320 | TI (Therapeutic Index, MTC/ID50) ([1]; listed as 1.5H): 3.9 and 3.6; TI (Therapeutic Index, MTC/ID50) ([3]; listed as 1.5H): 1.8 and 1.5; MTC (minimum drug concentration causing any cytotoxicity) (Vero cells; HSV-1 (E-377) experiment): 320 µg/mL; MTC (minimum drug concentration causing any cytotoxicity) (Vero cells; HSV-2 (MS) experiment): 320 µg/mL
Nc1ncnc2c1c(Br)cn2C1CC(CO)C1CO (centres unmarked) [Example 67F, 4-Amino-9-bromo-7-(2',3'-bis(hydroxymethyl)cyclobutyl)-7H-pyrrolo[2,3-d]pyrimidine] |  |  |  |  |  |  |  |  | IC50 (A549: Lung carcinoma): 3.1 µg/mL (≈ 9.47 µM); IC50 [4]: 5.2 µg/mL (≈ 15.9 µM); IC50 [5]: 5.9 µg/mL (≈ 18 µM)
OCC1CC(n2ccc3c(Cl)ncnc32)C1CO (centres unmarked) [Example 67B, 4-Chloro-7-(2',3'-bis(hydroxymethyl)cyclobutyl)-7H-pyrrolo[2,3-d]pyrimidine] |  |  |  |  |  |  |  |  | viability ([8]; 10 ug/ml): 86%; viability ([8]; 32 ug/ml): 68%; IC50 (A549: Lung carcinoma): 18.8 µg/mL (≈ 70.2 µM); HCMV yield ([9]; 3.2 ug/ml): 4.9 log10 PFU/ml; HCMV yield ([9]; 10 ug/ml): 4.0 log10 PFU/ml; HCMV yield ([9]; 32 ug/ml): 3.1 log10 PFU/ml; log reduction at 3.2 µg/mL ([9]; Human betaherpesvirus 5, 144 h, 3.2 ug/ml): 0.4; log reduction at 10 µg/mL ([9]; Human betaherpesvirus 5, 144 h, 10 ug/ml): 1.3; log reduction at 32 µg/mL ([9]; Human betaherpesvirus 5, 144 h, 32 ug/ml): 2.2; IC50 [4]: 4.9 µg/mL (≈ 18.3 µM); IC50 [5]: 0.63 µg/mL (≈ 2.35 µM)
NCC1CC(n2cnc3c(Cl)ncnc32)C1 (centres unmarked) [Example 21, 3-(6'-Chloro-9'H-purin-9'-yl)-aminomethylcyclobutane hydrochloride] | 3.6 | 1.0 | 88 | 320 | 4.3 | 1.2 | 75 | 320 | 
